Legend:
recombinant TOP1 = molecular target: T1, recombinant TOP1 (Homo sapiens, UniProt P11387); assay: TOP1-mediated DNA cleavage assay; type: biochemical; conditions: semiquantitative relative to CPT at 1 μM
T1 sequence (P11387 1-765): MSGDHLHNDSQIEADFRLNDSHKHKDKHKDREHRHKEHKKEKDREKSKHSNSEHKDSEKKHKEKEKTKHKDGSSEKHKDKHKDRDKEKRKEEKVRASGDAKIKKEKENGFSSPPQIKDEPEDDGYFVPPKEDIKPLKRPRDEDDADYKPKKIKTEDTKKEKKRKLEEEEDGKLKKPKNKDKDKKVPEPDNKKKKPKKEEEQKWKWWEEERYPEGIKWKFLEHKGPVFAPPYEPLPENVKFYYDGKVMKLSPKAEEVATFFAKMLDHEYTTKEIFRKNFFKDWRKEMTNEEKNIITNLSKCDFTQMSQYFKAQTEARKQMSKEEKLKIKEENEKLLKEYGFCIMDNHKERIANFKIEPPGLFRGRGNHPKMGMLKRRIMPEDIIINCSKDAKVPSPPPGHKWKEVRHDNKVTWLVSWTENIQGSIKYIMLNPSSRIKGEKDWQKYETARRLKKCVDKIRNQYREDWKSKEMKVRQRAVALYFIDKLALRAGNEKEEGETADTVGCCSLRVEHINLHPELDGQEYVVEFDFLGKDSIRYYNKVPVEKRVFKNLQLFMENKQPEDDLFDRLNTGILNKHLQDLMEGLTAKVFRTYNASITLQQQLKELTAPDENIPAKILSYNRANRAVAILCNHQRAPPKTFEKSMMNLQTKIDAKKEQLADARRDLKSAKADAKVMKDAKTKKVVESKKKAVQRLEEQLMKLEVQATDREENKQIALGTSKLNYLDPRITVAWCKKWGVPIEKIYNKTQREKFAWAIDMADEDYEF

recombinant human TDP1 = recombinant human TDP1 (Homo sapiens, UniProt Q9NUW8); assay: TDP1 gel-based inhibition assay; type: biochemical
recombinant human TDP1, sequence (Q9NUW8 whole entry): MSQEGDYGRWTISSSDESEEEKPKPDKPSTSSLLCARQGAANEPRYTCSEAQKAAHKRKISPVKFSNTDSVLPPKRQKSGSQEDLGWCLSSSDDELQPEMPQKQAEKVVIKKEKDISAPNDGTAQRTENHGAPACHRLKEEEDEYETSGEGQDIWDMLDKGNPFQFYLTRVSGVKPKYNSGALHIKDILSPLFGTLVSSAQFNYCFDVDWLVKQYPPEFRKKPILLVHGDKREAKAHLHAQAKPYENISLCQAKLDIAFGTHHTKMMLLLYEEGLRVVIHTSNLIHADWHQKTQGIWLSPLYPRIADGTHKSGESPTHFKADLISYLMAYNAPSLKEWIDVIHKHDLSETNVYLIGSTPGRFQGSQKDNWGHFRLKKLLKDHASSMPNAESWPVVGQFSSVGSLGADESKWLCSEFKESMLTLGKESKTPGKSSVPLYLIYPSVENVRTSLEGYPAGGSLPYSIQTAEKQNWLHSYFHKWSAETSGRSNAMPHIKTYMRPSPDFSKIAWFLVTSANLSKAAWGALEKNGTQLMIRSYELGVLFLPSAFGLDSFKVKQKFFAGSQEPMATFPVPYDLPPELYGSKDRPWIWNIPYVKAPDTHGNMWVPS

HCT-116 cells = assay: MTT cytotoxicity assay, HCT-116; type: cell-based, human; conditions: Homo sapiens, HCT-116, 72 h, read-out: GI50 ± SD (μM) HCT-116
MCF-7 cells [1] = assay: MTT cytotoxicity assay, MCF-7; type: cell-based, human; conditions: Homo sapiens, MCF7, 72 h, read-out: GI50 ± SD (μM) MCF-7
MCF-7 cells [2] = assay: Drug combination with TPT; type: cell-based, human; conditions: co-incubated with TPT for 96 h, 43 at 1 μM
[3] = test system: MCF-7/TDP1 cells (overexpressing TDP1); assay: Drug combination with TPT; type: cell-based, human; conditions: co-incubated with TPT for 96 h
[4] = molecular target: T2, cellular TOP1ccs in MCF-7 cells (Homo sapiens, UniProt P11387); assay: ICE assay for cellular TOP1cc; conditions: 1 h, 38 at 25, 50, 100 μM, TPT at 25 and 50 μM
T2 sequence (P11387 2-765 limits assumed): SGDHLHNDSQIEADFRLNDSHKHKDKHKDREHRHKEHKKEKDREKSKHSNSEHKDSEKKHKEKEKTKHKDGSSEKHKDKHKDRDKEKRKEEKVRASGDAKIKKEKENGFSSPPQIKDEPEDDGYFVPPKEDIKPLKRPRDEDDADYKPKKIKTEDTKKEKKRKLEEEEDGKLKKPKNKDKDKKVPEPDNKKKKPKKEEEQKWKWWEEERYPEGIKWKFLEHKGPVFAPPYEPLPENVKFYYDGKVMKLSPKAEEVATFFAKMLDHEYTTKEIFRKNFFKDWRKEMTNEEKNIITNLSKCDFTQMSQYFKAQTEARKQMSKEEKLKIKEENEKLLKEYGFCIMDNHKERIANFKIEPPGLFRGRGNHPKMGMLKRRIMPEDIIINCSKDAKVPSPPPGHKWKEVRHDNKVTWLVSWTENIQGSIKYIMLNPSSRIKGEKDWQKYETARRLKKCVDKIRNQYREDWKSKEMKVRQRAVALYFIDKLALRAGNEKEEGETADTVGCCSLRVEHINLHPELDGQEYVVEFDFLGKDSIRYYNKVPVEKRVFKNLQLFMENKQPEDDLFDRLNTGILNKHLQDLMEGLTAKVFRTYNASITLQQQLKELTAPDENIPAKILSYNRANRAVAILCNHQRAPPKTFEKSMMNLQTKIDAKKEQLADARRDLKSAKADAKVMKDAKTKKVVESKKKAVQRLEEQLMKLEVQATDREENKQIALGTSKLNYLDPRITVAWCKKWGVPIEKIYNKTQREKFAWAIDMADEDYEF

[5] = test system: γH2AX foci in MCF-7 cells; assay: γH2AX immunofluorescence assay; type: cell-based, human; conditions: 5 h
MCF-7 cells [6] = assay: Flow cytometry apoptosis assay; type: cell-based, human; conditions: 4 µM, 24 h
[7] = molecular target: cellular TDP1ccs in MCF-7 cells (Homo sapiens, UniProt Q9NUW8); conditions: 1 h
cellular TDP1ccs in MCF-7 cells, sequence (Q9NUW8 whole entry): as the sequence (Q9NUW8 whole entry) above

[8] = TOP1 cleavage inhibitory activity, Table 2

Compound | TOP1 Inhibition (recombinant TOP1; [8]) | TOP1 Inhibition (recombinant TOP1) | IC50 (recombinant human TDP1) | GI50 (HCT-116 cells) | GI50 (MCF-7 cells [1]) | combination index (CI) with TPT (MCF-7 cells [2]) | combination index (CI) with TPT [3] | cellular TOP1cc trapping [4] | γH2AX foci, fold compared with TPT treated alone ([5]; co-treatment with TPT and 43 at 1 μM) | γH2AX foci, fold compared with TPT treated alone ([5]; co-treatment with TPT and 43 at 2 μM) | DNA damage (γH2AX foci) relative to that of TPT ([5]; compound alone at 1 μM) | late apoptosis, % cells (MCF-7 cells [6]) | quantity of cellular TDP1cc ([7]; co-treated with TPT (10 μM) and 43 (10 and 100 μM)) | cellular TDP1ccs ([7]; compound alone at 100 μM) | γH2AX foci formation ([5]; alone)
COc1cc2c(=O)n(C)c3c4cc5c(cc4cc(OCCCN(C)C)c3c2cc1OC)OCO5 [Compound 35, 5-(3-(Dimethylamino)propoxy)-2,3-dimethoxy-12-methyl-[1,3]dioxolo[4’,5’:4,5]benzo[1,2-c]phenanthridin-13(12H)-one] | 0 | no TOP1 inhibition | 18 ± 6.9 µM | 0.55 ± 0.17 µM | 1.2 ± 0.1 µM | 0.02–0.69 | 0.003–0.51 | – | – | – | – | – | – | – | –
COc1cc2c(=O)n(C)c3c4cc5c(cc4cc(OCCN4CCCC4)c3c2cc1OC)OCO5 [Compound 38, 2,3-Dimethoxy-12-methyl-5-(2-(pyrrolidin-1-yl)ethoxy)-[1,3]dioxolo[4’,5’:4,5]benzo[1,2-c]phenanthridin-13(12H)-one] | +++ (+++, between 75% and 95% activity) | – | 37 to 111 µM | 0.25 ± 0.02 µM | 6.4 ± 1 µM | – | – | trapped cellular TOP1ccs in MCF-7 cells in a dose-dependent manner | – | – | – | – | – | – | –
COc1cc2c(=O)n(C)c3c4cc5c(cc4cc(OCCCNCCO)c3c2cc1OC)OCO5 [Compound 43, 5-(3-((2-Hydroxyethyl)amino)propoxy)-2,3-dimethoxy-12-methyl-[1,3]dioxolo[4’,5’:4,5]benzo [1,2-c]phenanthridin-13(12H)-one] | + (+, between 20% and 50% activity) | – | 10 ± 3.8 µM | 0.29 ± 0.19 µM | 2.2 ± 1.2 µM | 0.18–0.77 | 0.003–0.51 | – | about 1.9 fold | ~2.4 fold | about one fifth | ~28.58% | significantly enhanced | significantly enhanced | –
COc1cc2c(=O)n(C)c3c4cc5c(cc4cc(OCCCN4CCN(c6cccc(C(F)(F)F)c6)CC4)c3c2cc1OC)OCO5 [Compound 45, 2,3-Dimethoxy-12-methyl-5-(3-(4-(3-(trifluoromethyl)phenyl)piperazin-1-yl)propoxy)-[1,3]dioxolo[4’,5’:4,5]benzo[1,2-c]phenanthridin-13(12H)-one] | 0 | – | > 111 µM | > 100 µM | 85 ± 3.8 µM | – | – | – | – | – | – | – | – | – | –
CC[C@@]1(O)C(=O)OCc2c1cc1n(c2=O)Cc2cc3c(CN(C)C)c(O)ccc3nc2-1 [TPT, Topotecan, reference compound] | – | – | – | – | – | – | – | trapped cellular TOP1ccs | – | – | – | – | – | – | could obviously induce γH2AX foci formation

Reference: PMC10233710 (ChemMedChem, 2023)
